Measurements as given in US20220054476A1, “SUSTAINED LOCAL DRUG LEVELS FOR INNATE IMMUNE AGONISTS” (Ascendis Pharma Oncology Division A/S, priority 2019, published 2022).
Marks after values point to notes of the source that are not given here.

Key:
in vivo = assay: in vivo; set-up: species or system WISTAR rats; conditions: male, Wistar, rat, sc, 25 ug; for half-life: t1/2 (biphasic)
Source text: Hydrogels were suspended (ca. 6% wt/v) PBST buffer at pH 7.4. […] Blood samples were withdrawn and used for plasma generation over the course of 28 d. […] Plasma concentration profiles were generated and analyzed with Phoenix WinNonlin software (Certara, Princeton, N.J., USA).

CT26 tumor cells = assay: In vivo anti-tumor efficacy, absolute tumor volumes (Example 11); set-up: species or system BALB/C mice; conditions: single intratumoral dose (4: 20 μg; 13c: 50 μL)
Protocol: Mice were subcutaneously implanted with 3×10^5 CT26 tumor cells in the left and right flanks. […] Hydrogels were administered as suspensions in PBST buffer. Following treatment initiation, anti-tumor efficacy was assessed by determination of tumor volumes at various time points from tumor size measurements with a caliper. Tumor volumes were calculated according to the formula: Tumor volume=(L×W^2)×0.5 where L is the length of the tumor and W the width (both in mm). Mice were removed from the study once tumors were greater than 1500 mm^3.

[1] = Resiquimod concentration in plasma samples after intratumoral injection (Example 17); type: in vivo, BALB/C mice; conditions: female, BALB/C, mouse, other: intratumoral injection, 10 μg
Protocol: Hydrogels were administered as suspensions in PTP buffer. […] Tumors were excised, weighed and snap frozen.

[2] = system: cytokine and chemokine genes (Il1a, Ccl3, Il1b, Cxcl2, Ccl2, Ccl4, Il10, Ifna4, Cxcl1, Cxcl10, Tnf) in PBMC; assay: PBMC gene expression 6 hours post-treatment, qPCR (Example 17); type: in vivo, BALB/C mice; set-up: key to Cxcl2 gene expression, Mean (2^ΔΔCT) / Ccl2 gene expression, Mean (2^ΔΔCT) / Ccl4 gene expression, Mean (2^ΔΔCT) / Ifna4 gene expression, Mean (2^ΔΔCT) / Cxcl1 gene expression, Mean (2^ΔΔCT) / Cxcl10 gene expression, Mean (2^ΔΔCT) / Il1a gene expression, Mean (2^ΔΔCT) / Tnf gene expression, Mean (2^ΔΔCT): fold change vs untreated, 2^-ΔΔCT, normalized to B2M/UBB/GAPDH
Protocol: Hydrogels were administered as suspensions in […]. […] Tumors were excised, weighed and snap frozen. […] For PBMC isolations, approximately 600 μl of whole blood was collected via cardiac puncture. The collected whole blood from each individual mouse was diluted with a 1:1 ratio of pre-warmed PBS supplemented with 2% Fetal Bovine Serum (FBS). Then an equal volume of Histopaque-1083 was added to a new sterile 15 mL conical tube, where the diluted whole blood was layered over the Histopaque-1083. The mixture was then centrifuged at 400 g for 30 minutes. The top plasma layer was discarded, and the white translucent interlayer (mononuclear cells) was carefully transferred to a new sterile centrifuge tube. The mononuclear cells were then washed with PBS supplemented with 2% FBS and then were spun down at 250 g for 10 minutes. Afterwards, the cells were lysed with 2 ml of Ammonium-Chloride-Potassium (ACK) lysis buffer (Gibco) for 5 minutes at room temperature to get rid of the red blood cells following manufacturer's instruction. Subsequently, the cells were washed twice with PBS supplemented with 2% FBS and were centrifuged at 250 g for 10 minutes. Then, the supernatant was removed and the PBMC cell pellet was lysed in RLT buffer (Qiagen) and stored at −80° C. before being proceeded to RNA extraction and isolation. Lysates from untreated control samples and 6 hour treated samples were thawed and RNA was isolated using the RNeasy Mini Kit (QIAGEN) following manufacturer's recommendations. Following the first column washing step, DNA was digested directly on the column using the RNase-free DNase Set (TIANGEN) following manufacturer's recommendations. RNA was eluted with RNase-free water. RNA concentrations were measured using a NanoDrop (ThermoFisher) and then adjusted to 200 ng/mL with RNase-free water. RNA quality was assessed using a NanoDrop (ThermoFisher). […] Reverse transcription was performed using random primers, 10 mM dNTP mix, and RNase inhibitor (TIANGEN). Reverse transcription was performed with the following thermal steps: 25° C. for 10 minutes, 37° C. for 120 minutes, 55° C. for 5 minutes. 200 ng of cDNA was used for quantitative PCR using the RT^2 SYBR Green ROX qPCR Master mix (2×) kit (QIAGEN) following manufacturer's recommendations. Probe sets used for qPCR reactions are as follows: [table] Cycle thresholds (CT) were collected using a 384-well platform ABI-7900H real-time qPCR system (Applied Biosystems). B2M, Ubb and GAPDH were used as housekeeping control genes. Data is reported as the average of the 2^-ΔΔCT values for each treatment. 2^-ΔΔCT values were calculated with the following formula: 2^-ΔΔCT=2^−(ΔCT(treated)−ΔCT(untreated)) ΔCT(treated)═CT(treated)−CT (average treated housekeeping) where CT(treated)═CT of the gene of interest of a sample triplicate in the treatment group and CT (treated housekeeping)=Total average CT of the B2M, UBB and GAPDH housekeeping genes of the same sample triplicate in the same treatment group. ΔCT(untreated)═CT (untreated)−CT (untreated housekeeping) where CT (untreated)=average of the CTs of the untreated triplicates at the same timepoint as the CT(treated) comparator and CT (untreated housekeeping)=Total average CT of the B2M, UBB and GAPDH housekeeping genes of the untreated triplicates. For each gene, 3 technical replicates were analyzed per biological replicate. Undetermined technical replicate CT values were recorded as zero ΔCT values. 4-5 biological replicates were assessed in total.

Compound `CCOCc1nc2c(N)nc3ccccc3c2n1CC(C)(C)O` [Compound 4, Resiquimod] has an AUC (in vivo) of 65.4 ng·h/mL, a Cmax (in vivo) of 23.1 ng/mL and a half-life (in vivo; first value) of 1.5 h. The half-life (in vivo; second value) was 10 h, the “Absolute Tumor Volumes, Mean” value (CT26 tumor cells; day 0 post-treatment) was 88.82 mm^3 and the “Absolute Tumor Volumes, Mean” value (CT26 tumor cells; day 2 post-treatment) was 108.44 mm^3. The “Absolute Tumor Volumes, Mean” value (CT26 tumor cells; day 4 post-treatment) was 128.42 mm^3, the “Absolute Tumor Volumes, Mean” value (CT26 tumor cells; day 7 post-treatment) was 316.07 mm^3 and the “Absolute Tumor Volumes, Mean” value (CT26 tumor cells; day 9 post-treatment) was 549.72 mm^3. For the same compound, the “Absolute Tumor Volumes, Mean” value (CT26 tumor cells; day 11 post-treatment) was 957.90 mm^3, the “Absolute Tumor Volumes, Mean” value (CT26 tumor cells; day 14 post-treatment) was 1220.96 mm^3 and the concentration at 0 h ([1]; 0 hours) was 210 ng/mL. The concentration at 6 h ([1]; 6 hours) was 0.36 ng/mL, the concentration at 22 h ([1]; 22 hours) was 0.022 ng/mL and the concentration at 72 h ([1]; 72 hours) was 0.014 ng/mL. The “Ccl2 gene expression, Mean (2^ΔΔCT)” value ([2]; qPCR) was 6.75, the “Ccl3 gene expression, Mean (2^ΔΔCT)” value ([2]; qPCR) was 1.43† and the “Ccl4 gene expression, Mean (2^ΔΔCT)” value ([2]; qPCR) was 1.31. For the same compound, the “Cxcl1 gene expression, Mean (2^ΔΔCT)” value ([2]; qPCR) was 7.41, the “Cxcl2 gene expression, Mean (2^ΔΔCT)” value ([2]; qPCR) was 35.37 and the “Cxcl10 gene expression, Mean (2^ΔΔCT)” value ([2]; qPCR) was 45.38. The “Ifna4 gene expression, Mean (2^ΔΔCT)” value ([2]; qPCR) was 2.97, the “Il1a gene expression, Mean (2^ΔΔCT)” value ([2]; qPCR) was 0.41 and the “Il1b gene expression, Mean (2^ΔΔCT)” value ([2]; qPCR) was 3.71†. The “Il10 gene expression, Mean (2^ΔΔCT)” value ([2]; qPCR) was 2.77†, the “Tnf gene expression, Mean (2^ΔΔCT)” value ([2]; qPCR) was 4.64 and the “Ccl2 Fold change (4/13i)” value ([2]; ratio of mean 4 to mean 13i) was 2.82. For the same compound, the “Ccl3 Fold change (4/13i)” value ([2]; ratio of mean 4 to mean 13i) was 1.64, the “Ccl4 Fold change (4/13i)” value ([2]; ratio of mean 4 to mean 13i) was 1.74 and the “Cxcl1 Fold change (4/13i)” value ([2]; ratio of mean 4 to mean 13i) was 11.54. The “Cxcl2 Fold change (4/13i)” value ([2]; ratio of mean 4 to mean 13i) was 6.43, the “Cxcl10 Fold change (4/13i)” value ([2]; ratio of mean 4 to mean 13i) was 21.41 and the “Ifna4 Fold change (4/13i)” value ([2]; ratio of mean 4 to mean 13i) was 20.48. For the same compound, the “Il1a Fold change (4/13i)” value ([2]; ratio of mean 4 to mean 13i) was 1.78, the “Il1b Fold change (4/13i)” value ([2]; ratio of mean 4 to mean 13i) was 7.92 and the “Il10 Fold change (4/13i)” value ([2]; ratio of mean 4 to mean 13i) was 2.29. The “Tnf Fold change (4/13i)” value ([2]; ratio of mean 4 to mean 13i) was 4.45.
